Measured values as given in patent US20150147309A1, “ALLOSTERIC CHAPERONES AND USES THEREOF” (Fondazione Telethon, priority 2012, published 2015).
Blank lines part the entries; values can stand above or below the molecule they belong to.

Assays:
rhGAA in PD fibroblasts = target: T1, rhGAA in PD fibroblasts (Homo sapiens, UniProt P10253); test: Correction of GAA activity by rhGAA in PD fibroblasts with chaperone (synergy); type: cell-based; settings: patient 3 (FIG. 7)
T1 construct: purchased Genzyme Co, Cambridge, Mass., USA
Description: To study the rhGAA uptake and correction of GAA activity in PD fibroblasts, the cells were incubated with […] rhGAA for 24 hours, in the absence or in the presence of 10 mM NAC. Untreated cells or were used for comparison. After the incubation the cells were harvested by trypsinization and disrupted by 5 cycles of freezing and thawing.
GAA activity was assayed by using the fluorogenic substrate 4-methylumbelliferyl-alpha-D-glucopyranoside (Sigma-Aldrich) according to a published procedure [Porto et al, 2009]. Briefly, 25 micrograms of protein were incubated with the fluorogenic substrate (2 mM) in 0.2 M acetate buffer, pH 4.0, for 60 minutes in incubation mixtures of 100 μl. The reaction was stopped by adding 700 μl of glycine-carbonate buffer, pH 10.7. Fluorescence was read at 365 nm (excitation) and 450 nm (emission) on a Turner Biosystems Modulus fluorometer. Protein concentration in cell homogenates was measured by the Bradford assay (Biorad, Hercules, Calif.).
To study GAA immunoreactive material, fibroblast extracts were subjected to western blot analysis. The cells were harvested, washed in phosphate-buffered saline, resuspended in water, and disrupted by five cycles of freeze-thawing. Equal amounts (20 μg protein) of fibroblast extracts were subjected to sodium dodecyl sulfate polyacrylamide gel electrophoresis and proteins were transferred to PVD membrane (Millipore, Billerica, Mass.). An anti-human GAA antiserum was used as primary antibody to detect GAA polypeptides; to detect β-actin, a monoclonal mouse antibody was used Immunoreactive proteins were detected by chemiluminescence (ECL, Amersham, Freiburg, Germany)
To study the distribution of AlexaFluor546 labeleld GAA, PD fibroblasts grown on coverslips were fixed using methanol, permeabilized using 0.1% saponin and locked with 0.01% saponin, 1% fetal bovine serum diluted in phosphate-buffered saline for 1 hour. The cells were incubated with the primary antibodies, with secondary antibodies in blocking solution and then mounted with vectashield mounting medium (Vector Laboratories, Burlingame, Calif.). Samples were examined with a Zeiss LSM 5 10 laser scanning confocal microscope. Authors used Argon/2 (458, 477, 488, and 514 nanometers) and HeNe1 (543 nanometers) excitation lasers, which were switched-on separately to reduce crosstalk of the two fluorochromes. The green and the red emissions were separated by a dichroic splitter (FT 560) and filtered (515-540-nm bandpass filter for green and >610-nm long pass filter for red emission). A threshold was applied to the images to exclude ˜99% of the signal found in control images.

rhGAA [1] = target: T2, rhGAA (Homo sapiens, UniProt P10253); test: Thermal stability scans of rhGAA (SYPRO Orange); type: binding; settings: pH 7.4; for Tm of rhGAA in the presence of chaperone: NAC 10 mM, DNJ 0.1 mM
T2 construct: purchased Genzyme Co, Cambridge, Mass., USA
Description: Thermal stability scans of rhGAA were performed as described in [Flanagan et al. 2009]. Briefly, 2.5 μg of enzyme were incubated in the absence and in the presence of NAC and DNJ, 10 mM and 0.1 mM, respectively, SYPRO Orange dye, and sodium phosphate 25 mM buffer, 150 mM NaCl, pH 7.4 or sodium acetate 25 mM buffer, 150 mM NaCl, pH 5.2. Thermal stability scans were performed at 1° C./min in the range 25-95° C. in a Real Time LightCycler (Bio-Rad). SYPRO Orange fluorescence was normalized to maximum fluorescence value within each scan to obtain relative fluorescence. Melting temperatures were calculated according to (Niesen et al. 2007).

rhGAA [2] = target: T2, rhGAA; test: Effect of compounds on rhGAA stability at neutral pH (residual α-glucosidase activity); type: biochemical; settings: pH 7.0, 37° C., 0.1-10 mM, up to 48 hrs
Description: (§1) The standard activity assay of rhGAA was performed in 200 μl by using 5 μg of enzyme at 37° C. in 100 mM sodium acetate pH 4.0 and 20 mM 4NP-Glc. The reaction was started by adding the enzyme; after suitable incubation time (1-2 min) the reaction was blocked by adding 800 μL of 1 M sodium carbonate pH 10.2. Absorbance was measured at 420 nm at room temperature, the extinction coefficient to calculate enzymatic units was 17.2 mM^−1 cm^−1. One enzymatic unit is defined as the amount of enzyme catalyzing the conversion of 1 μmol substrate into product in 1 min, under the indicated conditions.
(§2) The effect of different pHs on the rhGAA stability was measured by preparing reaction mixtures containing 0.75 mg mL^−1 of enzyme in the presence of 50 mM citrate/phosphate (pH 3.0-7.0) at a certain pH. After incubations at 37° C., aliquots were withdrawn at the times indicated and the residual α-glucosidase activity was measured with the standard assay. To test the effect on the pH stability of rhGAA of chemical chaperons and of the other molecules, experiments were performed as described above by adding to the reaction mixtures the amounts of the different compounds indicated in the text.

rhGAA [3] = target: T2, rhGAA; test: Effect on rhGAA enzyme activity (standard activity assay); type: biochemical; settings: three concentrations (FIG. 4)
Description: as §1

[4] = Effect of pH on rhGAA stability; type: physicochemical
Description: as §1, §2

[5] = target: T3, rh-alpha-Gal A in Fabry disease cell lines (Homo sapiens, UniProt P06280); test: Correction by rh-alpha-Gal A in Fabry disease cell lines with chaperone; type: cell-based; settings: three Fabry disease cell lines
T3 construct: purchased Genzyme Co, Cambridge, Mass., USA
T3 sequence (P06280 32-429): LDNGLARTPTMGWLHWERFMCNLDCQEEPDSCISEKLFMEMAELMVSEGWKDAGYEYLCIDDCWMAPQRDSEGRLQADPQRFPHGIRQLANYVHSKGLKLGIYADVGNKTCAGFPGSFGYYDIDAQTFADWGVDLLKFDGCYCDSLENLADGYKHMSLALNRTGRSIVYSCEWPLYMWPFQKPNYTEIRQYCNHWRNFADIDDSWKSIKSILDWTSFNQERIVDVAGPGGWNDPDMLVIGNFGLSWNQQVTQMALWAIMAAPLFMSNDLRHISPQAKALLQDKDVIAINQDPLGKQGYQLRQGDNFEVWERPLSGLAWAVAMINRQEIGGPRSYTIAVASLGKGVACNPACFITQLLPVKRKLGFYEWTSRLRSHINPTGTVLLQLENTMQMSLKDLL
Description: Fibroblasts from PD and Fabry disease patients were derived from skin biopsies after obtaining the informed consent of patients. Normal age-matched control fibroblasts were available in the laboratory of the Department of Pediatrics, Federico II University of Naples. All cell lines were grown at 37° C. with 5% CO2 in Dulbecco's modified Eagle's medium (Invitrogen, Grand Island, N.Y.) and 10% fetal bovine serum (Sigma-Aldrich, St Louis, Mo.), supplemented with 100 U/ml penicillin and […] streptomycin.

enhancement of rhGAA in PD cultured fibroblasts (rhGAA in PD fibroblasts): did not enhance
Molecule: Oc1ccc(C=Cc2cc(O)cc(O)c2)cc1 [resveratrol, reference compound]

Tm of rhGAA in the presence of chaperone (rhGAA [1]): 65.9±0.3 °C
Molecule: OC[C@H]1NC[C@H](O)[C@@H](O)[C@@H]1O [DNJ, 1-deoxy-nojiirimycin, reference compound]

stabilization of rhGAA at neutral pH (rhGAA [2]): did not prevent enzyme inactivation
Molecule: OCCS [2-mercapto-ethanol, reference compound]

Molecule: O=C(O[C@@H]1Cc2c(O)cc(O)cc2O[C@@H]1c1cc(O)c(O)c(O)c1)c1cc(O)c(O)c(O)c1 [epigallo chatechingallate, epigallo catechingallate, reference compound]
enhancement of rhGAA in PD cultured fibroblasts (rhGAA in PD fibroblasts): did not enhance

stabilization of rhGAA at neutral pH (rhGAA [2]): did not prevent enzyme inactivation
Molecule: N[C@@H](CO)C(=O)O [Ser, reference compound]

stabilization of rhGAA at neutral pH (rhGAA [2]): did not prevent enzyme inactivation
Molecule: NCC(=O)O [Gly, reference compound]

stabilization of rhGAA at neutral pH (rhGAA [2]): remarkable stabilization
effect on the activity of the enzyme (rhGAA) (rhGAA [3]): no effect
Molecule: CC(=O)N[C@@H](CO)C(=O)O [NAS, N-acetyl serine]

Molecule: rhGAA: recombinant human GAA (alglucosidase, Myozyme) from Genzyme, used for enzyme replacement therapy
Tm of rhGAA in the absence of chaperone (rhGAA [1]): 50.2±0.1 °C
rhGAA residual activity after 4 hours ([4]; pH 3.0 or 7.0, 37° C., 4 hours): approximately 50%
rhGAA residual activity after 16 hours ([4]; pH 3.0 or 7.0, 37° C., 16 hours): less than 10%
rhGAA stability at pH 5.0 ([4]; pH 5.0, 37° C., up to 24 hours): stable

stabilization of rhGAA at neutral pH (rhGAA [2]): remarkable stabilization
effect on the activity of the enzyme (rhGAA) (rhGAA [3]): no effect
Molecule: CC(=O)NCC(=O)O [NAG, N-acetyl glycine]

stabilization of rhGAA at neutral pH (rhGAA [2]): did not prevent enzyme inactivation
Molecule: N[C@@H](CS)C(=O)O [Cys, reference compound]

enhancement of correction by rh-alpha-Gal A [5]: largely enhanced
Molecule: OC[C@H]1NC[C@H](O)[C@@H](O)[C@H]1O [DGJ, 1-deoxy-galactonojiirimycin, reference compound]

Tm of rhGAA in the presence of chaperone (rhGAA [1]): 65.9±0.3 °C
Molecule: CCCCN1C[C@H](O)[C@@H](O)[C@H](O)[C@H]1CO [NB-DNJ, N-butyl-deoxynojirimycin, reference compound]
